These results are taken from PMC9501129 (Pharmaceutics, 2022).

Each structure is given as a SMILES string. Where two headings read alike, the source gives them in different places.

Data set [1] in a line: Amniotic fluid drug concentration in mouse pregnancy model (HPLC-MSMS). The conditions noted are these: female, C57BL/6J, mouse, amniotic fluid / maternal plasma, oral, pregnant mice. It counts as in vivo, C57BL/6J mice. An excerpt:
All animal experiments were approved by the University Health Network Animal Use Committee (protocol #2575) and performed according to the policies and guidelines of the Canadian Council on Animal Care. C57BL/6J mice bred in-house (original breeders from Jackson Laboratory RRID:IMSR JAX:000664) were maintained under a 12-h light/dark cycle, with ad libitum access to food and water. Animals were acclimated to their surroundings for 1 week prior to experiment initiation. Males were isolated for 7 days prior to mating. Female mice (7–12 weeks of age) were mated with males at a ratio of 2:1. Presence of vaginal plug was denoted as gestational day 0.5 (GD0.5). Pregnancy was confirmed by weight gain of >1.5 g on GD9.5 and >3 g on GD13.5. […] The equivalent mouse mg/kg dose was calculated based on the human dose divided by an assumed average human weight of 60 kg. […] On GD15.5, mice underwent saphenous bleed 24 h after the GD14.5 dose administration (trough). Immediately after the saphenous bleed, mice were dosed with the appropriate drug regimen and sacrificed 1 h post-treatment (peak), at which time blood was collected by cardiac puncture and amniotic fluid was collected by dissecting the uterus, puncturing the amniotic sac, and draining the amniotic fluid into a sterile dish. Amniotic fluid was pooled for the entire litter. Samples from 2 dams per arm were analyzed for drug levels.
Briefly, 50 μL of plasma or amniotic fluid was spiked with internal standard (ritonavir-d6) followed by protein precipitation with acetonitrile and filtration. Filtrates were diluted 1:9 with ammonium acetate buffer (10 mM) and analyzed by the HPLC-MSMS system, consisting of a Shimadzu Nexera XR high-performance liquid chromatograph (Shimadzu, Columbia, MD, USA) coupled with a SCIEX API 4500 QqQ mass spectrometer (SCIEX, Concord, ON, Canada). Chromatographic separation by Mobile Phase A (10% methanol, 5% 50 mM ammonium acetate, 85% 0.25% acetic acid pH 3.6 ± 0.2) and Mobile Phase B (90% methanol, 5% 50 mM ammonium acetate, 5% 0.25% acetic acid pH 6.6 ± 0.2) was performed under linear gradient conditions (flow rate 0.7 mL/min) on a reverse-phase Zorbax XDB-C18 column (Agilent Technologies, Santa Clara, CA, USA) maintained at 40 °C. […] HPLC-MSMS data were acquired using Analyst (v 1.6.3, SCIEX, Concord, ON, Canada) and analyzed with MultiQuant software (v 3.0.3, SCIEX, Concord, ON, Canada). […] Positive controls spiked in-house and prepared by an external laboratory during a sample exchange program were included in all runs.

The next data set deals with pregnant rabbits. The conditions noted are these: cited from earlier work.
Data set [2] relates to pregnant rats. The conditions noted are these: BIC orally 5, 30, or 300 mg/kg/day, gestational day 7 through 17; cited from earlier work.
For data set [3], the system named is pregnant rats. The conditions noted are these: BIC orally up to 300 mg/kg/day, gestational day 6 to lactation/postpartum day 24; cited from earlier work.
The conditions of data set [4]: ex-vivo dually perfused human cotyledon; cited from earlier work.
The conditions of data set [5]: cited from earlier work.
The test system of another data set is HIV. The conditions noted are these: compared to RAL and EVG; cited from earlier work.

Turning to `O=C(NCc1c(F)cc(F)cc1F)c1cn2c(c(O)c1=O)C(=O)N1[C@H]3CC[C@H](C3)O[C@@H]1C2` [BIC, bictegravir], the Kp at 1 h is 0.021 to 0.036 in data set [1] (1× to 10× BIC, 1 h after dosing, read-out: Ratio of drug in the amniotic fluid to that in maternal plasma); 0.112 in data set [1] (20× BIC dose, 1 h after dosing, read-out: Ratio of drug in the amniotic fluid to that in maternal plasma); 0.021 in data set [1] (BIC 0.83 mg/kg (1×) oral gavage once daily GD11.5-GD15.5 with TDF 50 mg/kg + FTC 33.3 mg/kg, mean (SD), n=2, read-out: Amniotic: Maternal Plasma Ratio 1 h); 0.021 in data set [1] (BIC 4.15 mg/kg (5×) oral gavage once daily GD11.5-GD15.5 with TDF 50 mg/kg + FTC 33.3 mg/kg, mean (SD), n=2, read-out: Amniotic: Maternal Plasma Ratio 1 h); 0.036 in data set [1] (BIC 8.3 mg/kg (10×) oral gavage once daily GD11.5-GD15.5 with TDF 50 mg/kg + FTC 33.3 mg/kg, mean (SD), n=2, read-out: Amniotic: Maternal Plasma Ratio 1 h); 0.112 in data set [1] (BIC 16.6 mg/kg (20×) oral gavage once daily GD11.5-GD15.5 with TDF 50 mg/kg + FTC 33.3 mg/kg, mean (SD), n=2, read-out: Amniotic: Maternal Plasma Ratio 1 h). For the same compound, the “Maternal and pregnancy findings” value in the data set with pregnant rabbits (BIC 1000 mg/kg/day) was “Spontaneous abortion, decreased body weight, and maternal toxicity”. The Embryo-fetal effects entry in the data set on pregnant rabbits (BIC orally 100, 300, or 1000 mg/kg/day, gestational day 7 through 19) is on record as “no adverse embryo-fetal effects”; in the data set with pregnant rats [2], “no adverse embryo-fetal effects”. Further, the “Adverse effects in fetuses or pups” value with pregnant rats [3] is recorded as “no significant adverse effects in fetuses or pups”. The Placental transfer result in data set [4] is on record as “low placental transfer”. Also, the Birth defects observed entry in data set [5] (interim report, 140 pregnancies in women treated with BIC during periconception or pregnancy) was “three”. The “Virological suppression through delivery” value in data set [5] (two pregnant women on BIC) is recorded as “remained virologically suppressed through delivery”. The “In vitro resistance profile” value in the data set with HIV is listed as “improved in vitro resistance profile”.
With `COc1cc2c(cc1Cc1cccc(Cl)c1F)c(=O)c(C(=O)O)cn2[C@H](CO)C(C)C` [EVG, elvitegravir], the “Drug levels in pregnancy” value in data set [5] (second and third trimester) is “inadequate levels in the second and third trimester”.
